Measurements reported in patent US10647686B2, “Substituted pyrimidines for preventing or treating cancer and inflammatory diseases” (KOREA RESEARCH INSTITUTE OF CHEMICAL TECHNOLOGY, priority 2016, dated 2020).

Experiments:
DRAK2 = DRAK2 (Homo sapiens (Human), UniProt O94768); assay: DRAK2 kinase activity inhibition (ADP-Glo, MRCL3 peptide substrate); assay type: biochemical; details: for DRAK2 selectivity (DRAK2 versus DRAK1) / DRAK2 IC50 compared with Comparative Examples 7 and 8 (n is 0): result in words; for DRAK2 selectivity (DRAK2 versus DRAK1): from Table 4; for DRAK2 IC50 compared with Comparative Examples 7 and 8 (n is 0): from Table 5
Experimental: (§1) DRAK1 and DRAK2 recombinant proteins were purchased from SignalChem Inc. To measure the kinase enzyme activity, the ADP-Glo™ kit provided by Promega Inc. was used. Buffer A used in the kinase reaction was composed of 60 mM Tris-Cl (pH 7.5), 30 mM MgCl2 and 0.15% BSA. Just before the experiment, 1 mM DTT was prepared by diluting 1 M solution and added thereto.
(§2) To measure the DRAK1 and DRAK2 activity, the substrate MRCL3 peptide and ATP were mixed with the enzymes. After an appropriate period of time, the reaction product ADP was quantitatively analyzed.
(§3) The buffer solution A was used to make a 3× substrate solution of 3× concentration so that the final concentrations of ATP and MRCL3 peptides were 1 uM, respectively, and 2.5 μl of each solution was dispensed into Optiplate 384 (perkin-elmer) microplate.
(§4) The final concentrations of ATP and MRCL3 peptide were made to be 1 uM respectively by using buffer A, followed by preparing a 3× substrate solution. The prepared substrate solution was distributed in Optiplate 384 (Perkin-Elmer) microplate (2.5 ul/well). Then, the compounds of Examples 1˜39 and the compounds of Comparative Examples 1-6, whose concentrations were tripled by the final concentration were distributed thereto (2.5 ul/well). Lastly, DRAK1 or DRAK2 enzyme solution, properly diluted by using buffer A, was added thereto (2.5 ul/well). Centrifugation was performed at 800 rpm for 1 minute, and then enzyme reaction was induced at 30° C.
(§5) 2 hours later, the enzyme reaction was terminated. To eliminate residual ATP, ADP-Glo™ reagent contained in ADP-Glo™ was added to each well at the concentration of 7.5 ul, which was the same amount as the sum of the previously added reagents, followed by centrifugation at the same RPM and time as the above. Additional reaction was induced at room temperature for 40 minutes. To convert the ADP produced by the kinase activity to ATP, 15 ul of kinase detection buffer was added to each well, followed by centrifugation. Five minutes after the centrifugation was completed, the luminescence value of the reaction product was determined using Envision, and the enzyme activity inhibition effect of the compound was measured. Then, IC50 of each compound was determined using Prism program.
(§6) The compounds of Example 1 and Example 19 were used as the experimental group and the compound of Comparative Example 6 was used as the control.
To evaluate DRAK2 inhibition activity of the compound represented by formula 1 according to the number of n, the experiment was performed with the compounds of Example 1, Example 19, Example 40, Comparative Example 7 and W Comparative Example 8 by the same manner as described in Experimental Example 1, leading to the measurement of IC50 to DRAK2.

DRAK1 = DRAK1 (Homo sapiens (Human), UniProt Q9UEE5); assay: DRAK1 kinase activity inhibition (ADP-Glo, MRCL3 peptide substrate); assay type: biochemical
Experimental: as §1, §2, §3, §4, §5, §6

[1] = Table 3, recombinant enzyme, 1 uM ATP, 1 uM MRCL3 peptide, 30° C., 2 hours
[2] = Table 4, Experimental Example 2, DRAK2 selectivity evaluation
[3] = Table 5, Experimental Example 3, according to the number of n

DRAK2, sequence (O94768 whole entry): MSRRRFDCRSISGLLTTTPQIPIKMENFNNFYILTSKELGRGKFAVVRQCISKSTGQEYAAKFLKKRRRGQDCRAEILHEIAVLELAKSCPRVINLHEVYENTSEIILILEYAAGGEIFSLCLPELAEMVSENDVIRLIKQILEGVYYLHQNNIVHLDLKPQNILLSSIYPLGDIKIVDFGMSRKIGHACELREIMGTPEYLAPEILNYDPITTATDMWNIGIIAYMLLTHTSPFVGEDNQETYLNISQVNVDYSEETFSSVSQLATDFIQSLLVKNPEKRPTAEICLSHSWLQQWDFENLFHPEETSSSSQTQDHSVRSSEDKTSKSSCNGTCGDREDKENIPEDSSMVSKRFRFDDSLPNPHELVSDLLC
DRAK1, sequence (Q9UEE5 whole entry): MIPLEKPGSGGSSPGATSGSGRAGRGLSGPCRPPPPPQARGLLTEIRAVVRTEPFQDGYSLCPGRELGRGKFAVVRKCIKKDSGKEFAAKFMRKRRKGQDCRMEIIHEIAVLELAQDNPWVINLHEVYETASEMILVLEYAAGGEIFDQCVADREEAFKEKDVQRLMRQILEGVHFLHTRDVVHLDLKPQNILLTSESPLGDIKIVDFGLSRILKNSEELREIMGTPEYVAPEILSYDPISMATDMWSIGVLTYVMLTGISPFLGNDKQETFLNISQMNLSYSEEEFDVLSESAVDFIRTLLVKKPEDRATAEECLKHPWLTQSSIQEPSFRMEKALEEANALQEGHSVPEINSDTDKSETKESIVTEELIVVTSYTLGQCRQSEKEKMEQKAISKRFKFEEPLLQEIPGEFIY

IC50 (DRAK2; [1]) [nM] | IC50 (DRAK1; [1]) [nM] | IC50 (DRAK2; [2]) [nM] | IC50 (DRAK2; [3]) [nM] | DRAK2 selectivity (DRAK2 versus DRAK1) (DRAK2) | DRAK2 IC50 compared with Comparative Examples 7 and 8 (n is 0) (DRAK2) | IC50 (DRAK1; [2]) [nM] | Compound
23 | 710 | 23 | 23 | excellent DRAK2 selectivity | significantly lower IC50 | 710 | Cc1cnc(Nc2ccc(Cl)cc2)nc1NCCCN [Example 19, N4-(3-aminopropyl)-N2-(4-chlorophenyl)-5-methylpyrimidine-2,4-diamine]
22 | 30 |  |  |  |  |  | NCCCNc1nc(Nc2ccc(N3CCNCC3)cc2)ncc1Cl [Example 25, N4-(3-aminopropyl)-5-chloro-N2-(4-(piperazine-1-yl)phenyl)pyrimidine-2,4-diamine]
23 | 390 |  |  |  |  |  | NCCCNc1nc(Nc2ccc(Br)cc2)ncc1Cl [Example 17, N4-(3-aminopropyl)-N2-(4-bromophenyl)-5-chloropyrimidine-2,4-diamine]
38 | 410 | 38 | 32 | excellent DRAK2 selectivity | significantly lower IC50 | 410 | NCCCNc1nc(Nc2ccc(Cl)cc2)ncc1Cl [Example 1, N4-(3-aminopropyl)-5-chloro-N2-(4-chlorophenyl)pyrimidine-2,4-diamine]
21 | 220 |  |  |  |  |  | NCCCNc1nc(Nc2ccc3c(c2)CCC3)ncc1Cl [Example 21, N4-(3-aminopropyl)-5-chloro-N2-(2,3-dihydro-1H-indene-5-yl)pyrimidine-2,4-diamine]
19 | 290 |  |  |  |  |  | NCCCNc1nc(Nc2ccc(F)cc2)ncc1Cl [Example 9, N4-(3-aminopropyl)-5-chloro-N2-(4-fluorophenyl)pyrimidine-2,4-diamine]
44 | 370 |  |  |  |  |  | CCc1ccc(Nc2ncc(Cl)c(NCCCN)n2)cc1 [Example 11, N4-(3-aminopropyl)-5-chloro-N2-(4-ethylphenyl)pyrimidine-2,4-diamine]

Second part, the compound before the results:

Compound | IC50 (DRAK2; [1]) [nM] | IC50 (DRAK1; [1]) [nM] | IC50 (DRAK2; [2]) [nM] | IC50 (DRAK2; [3]) [nM] | DRAK2 selectivity (DRAK2 versus DRAK1) (DRAK2) | DRAK2 IC50 compared with Comparative Examples 7 and 8 (n is 0) (DRAK2) | IC50 (DRAK1; [2]) [nM]
NCCCNc1nc(Nc2ccc3c(c2)OCCO3)ncc1Cl [Example 22, N4-(3-aminopropyl)-5-chloro-N2-(2,3-dihydrobenzo[b][1,4]dioxin-6-yl)pyrimidine-2,4-diamine] | 24 | 220 |  |  |  |  | 
NCCCNc1nc(Nc2ccc(Br)c(C(F)(F)F)c2)ncc1Cl [Example 16, N4-(3-aminopropyl)-N2-(4-bromo-3-(trifluoromethyl)phenyl)-5-chloropyrimidine-2,4-diamine] | 34 | 740 |  |  |  |  | 
NCCCNc1nc(Nc2ccc3c(c2)CCCC3=O)ncc1Cl [Example 24, 6-(4-(3-aminopropylamino)-5-chloropyrimidine-2-ylamino)-3,4-dihydronaphthalene-1(2H)-one] | 19 | 230 |  |  |  |  | 
Cc1ccc(Nc2ncc(Cl)c(NCCCN)n2)cc1Cl [Example 6, N4-(3-aminopropyl)-5-chloro-N2-(3-chloro-4-methylphenyl)pyrimidine-2,4-diamine] | 24 | 220 |  |  |  |  | 
Cc1ccc(Nc2ncc(Cl)c(NCCCN)n2)cc1C [Example 14, N4-(3-aminopropyl)-5-chloro-N2-(3,4-dimethylphenyl)pyrimidine-2,4-diamine] | 37 | 220 |  |  |  |  | 
NCCCNc1nc(Nc2ccc(S(=O)(=O)c3ccc([N+](=O)[O-])cc3)cc2)ncc1Cl [Example 13, N4-(3-aminopropyl)-5-chloro-N2-(4-(4-nitrophenylsulfonyl)phenyl)pyrimidine-2,4-diamine] | 14 | 110 |  |  |  |  | 
NCCCNc1nc(Nc2ccc(Cl)c(Cl)c2)ncc1Cl [Example 8, N4-(3-aminopropyl)-5-chloro-N2-(3,4-dichlorophenyl)pyrimidine-2,4-diamine] | 59 | 310 |  |  |  |  | 
